Measurements published in patent US20240207285A1 (Melt Pharmaceuticals, Inc., priority 2022, published 2024).

Columns and labels:
[1] = Phase 1 relative bioavailability study: plasma pharmacokinetics of midazolam, 1-hydroxymidazolam, ketamine and norketamine
Protocol: PK analysis was performed using noncompartmental methods in Phoenix WinNonlin® (Version 8.1, Certara, L.P.) in conjunction with the internet-accessible implementation of the Pharsight® Knowledgebase Server™ (PKSO; Version 4.0.4, Certara, L.P). PKSO provides protected and structured storage, audit trails, and version control for study data, analyses, and related files, supporting 21 CFR Part 11 compliance. The analysis was performed in accordance with the Statistical Analysis Plan (Version 1.0, 5 Jan. 2021).
During the PK analysis, concentrations below the limit of quantitation (BLQ) up to the time of the first quantifiable concentration were treated as zero. Embedded (values between 2 quantifiable concentrations) and terminal BLQ concentrations were treated as “missing”. Calculation of the PK characteristics were based on actual elapsed times [h] (relative to time of dose).
All PK analyses were performed on the data from the PK Analysis Population. […] The ANOVA model included factors for sequence, subject within sequence, treatment, and period.

healthy adult subjects [2] = experiment: Phase 1 sedation level by Ramsay sedation scale (RSS); assay type: in vivo, human
Protocol: (§1) Pharmacodynamic parameters included sedation, defined as time to onset of sedation and sedation level, assessed using the Ramsay sedation scale (RSS), and cardiodynamics assessed by QTcF, heart rate, and PR and QRS intervals, and T-wave morphology and U-wave presence, extracted from ECGs collected via Holter monitor from predose through 24 hours postdose.
All pharmacodynamic analyses were performed on data from the Safety Population. The RSS scores were summarized by treatment and by timepoint. Time to onset of sedation was summarized by treatment and presented graphically.

healthy adult subjects [3] = experiment: Phase 1 adverse events; assay type: in vivo, human
Excerpt: (§2) The Investigator evaluated safety using physical and oral examinations, O2 saturation (SpO2), vital sign measurements, clinical laboratory evaluations, electrocardiograms (ECGs), reported or observed adverse events (AEs), and assessments of neurocognitive function. Subjects were monitored for any AEs from the first dose through the end of the study.
Adverse events were coded using the Medical Dictionary for Regulatory Activities (MedDRA, version 22.0, or later) terms and summarized by system organ class (SOC) and preferred term (PT) within SOC. The number and percentage of subjects reporting TEAEs were summarized by reported SOC and PT for each treatment and the population overall. TEAEs were also summarized by maximum severity and nearest relationship to study drug, by SOC and PT for each treatment.
A by-subject AE (including treatment-emergent) data listing, including but not limited to verbatim term, SOC, PT, severity, and relationship to study treatment, was provided. Deaths, SAEs, and other significant AEs, including those leading to early termination of study treatments were listed.

healthy adult subjects [4] = experiment: Phase 1 vital signs and pulse oximetry; assay type: in vivo, human; conditions: for Mean changes from baseline in systolic and diastolic blood pressures: MELT-100 3/25 mg and 6/25 mg (so in the source), midazolam 3.5 mg IV, ketamine 18 mg IV, each timepoint
Excerpt: as §2
(§3) Vital signs, clinical laboratory values (hematology, serum chemistry, and urinalysis), and 12-lead ECG parameters were summarized by treatment including any abnormal values flagged.

healthy adult subjects [5] = experiment: Phase 1 electrocardiograms / cardiodynamics; assay type: in vivo, human; conditions: one subject, 24 hours after midazolam 3.5 mg IV; not considered clinically significant
Protocol: as §1
An analysis of categorical outliers was performed for changes in heart rate; PR, QRS, and QTcF intervals; T-wave morphology; and U-wave presence.
as §3

[6] = Treatment D: ketamine 18 mg IV, mean
[7] = 5 minutes after ketamine 18 mg IV
[8] = Treatment C: midazolam 3.5 mg IV, mean

Q: Which results are given for `CNC1(c2ccccc2Cl)CCCCC1=O` (centres unmarked) [Ketamine, 2-(2-chlorophenyl)-2-(methylamino)cyclohexanone]?
A: AUCExtrap, ketamine [1, 6]: 9.64%; CL, ketamine [1, 6]: 59.9 L/h; Clast, ketamine [1, 6]: 1.99 ng/mL; half-life ([1]; human, plasma, iv, 18 mg): 618 min; AUC(0-t) ([1]; human, plasma, iv, 18 mg, AUC0-t, ketamine, Treatment D: ketamine 18 mg IV, mean): 283 ng·h/mL; AUC(0-inf) ([1]; human, plasma, iv, 18 mg, AUCinf, ketamine, Treatment D: ketamine 18 mg IV, mean): 316 ng·h/mL; Cmax ([1]; human, plasma, iv, 18 mg, Cmax, ketamine, Treatment D: ketamine 18 mg IV, mean): 250 ng/mL; AUC(0-t) ([1]; human, plasma, iv, 18 mg, GeoMean AUC0-t, ketamine, Ref (D) ketamine 18 mg IV, least squares geometric mean): 277 ng·h/mL; AUC(0-inf) ([1]; human, plasma, iv, 18 mg, GeoMean AUCinf, ketamine, Ref (D) ketamine 18 mg IV, least squares geometric mean): 307 ng·h/mL; Cmax ([1]; human, plasma, iv, 18 mg, GeoMean Cmax, ketamine, Ref (D) ketamine 18 mg IV, least squares geometric mean): 208 ng/mL; Tmax ([1]; human, plasma, iv, 18 mg, Tmax, ketamine, Treatment D: ketamine 18 mg IV, median (range)): 10 min; Subjects with RSS score of 1 (healthy adult subjects [2]; [7]): 1 (4.0%) subjects (%); Subjects with RSS score of 5 (healthy adult subjects [2]; [7]): 1 (4.0%) subjects (%); Highest proportion of subjects with RSS scores >2 postdose (healthy adult subjects [2]; ketamine 18 mg IV): ~8%; Treatment-related AEs of hypertension (healthy adult subjects [3]; ketamine 18 mg IV): 3 AEs; Mean changes from baseline in systolic and diastolic blood pressures (healthy adult subjects [4]): highest at the 10-minute timepoint

Q: Which results are given for `Cc1ncc2n1-c1ccc(Cl)cc1C(c1ccccc1F)=NC2` [Midazolam, 8-chloro-6-(2-fluorophenyl)-1-methyl-4H-imidazo[1,5-a][1,4]benzodiazepine]?
A: AUCExtrap, midazolam [1, 8]: 5.58%; Clast, midazolam [1, 8]: 0.963 ng/mL; Vd ([1]; human, plasma, iv, 3.5 mg): 202 L; clearance ([1]; human, plasma, iv, 3.5 mg): 348 mL/min; half-life ([1]; human, plasma, iv, 3.5 mg): 420 min; AUC(0-t) ([1]; human, plasma, iv, 3.5 mg, AUC0-t, midazolam, Treatment C: midazolam 3.5 mg IV, mean): 168 ng·h/mL; AUC(0-inf) ([1]; human, plasma, iv, 3.5 mg, AUCinf, midazolam, Treatment C: midazolam 3.5 mg IV, mean): 179 ng·h/mL; Cmax ([1]; human, plasma, iv, 3.5 mg, Cmax, midazolam, Treatment C: midazolam 3.5 mg IV, mean): 146 ng/mL; AUC(0-t) ([1]; human, plasma, iv, 3.5 mg, GeoMean AUC0-t, midazolam, Ref (C) midazolam 3.5 mg IV, least squares geometric mean): 164 ng·h/mL; AUC(0-inf) ([1]; human, plasma, iv, 3.5 mg, GeoMean AUCinf, midazolam, Ref (C) midazolam 3.5 mg IV, least squares geometric mean): 174 ng·h/mL; Cmax ([1]; human, plasma, iv, 3.5 mg, GeoMean Cmax, midazolam, Ref (C) midazolam 3.5 mg IV, least squares geometric mean): 127 ng/mL; Tmax ([1]; human, plasma, iv, 3.5 mg, Median Tmax, midazolam, Treatment C: midazolam 3.5 mg IV): 11 min; Tmax ([1]; human, plasma, iv, 3.5 mg, Tmax, midazolam, Treatment C: midazolam 3.5 mg IV, median (range)): 11 min; Subjects with RSS scores of 3 (healthy adult subjects [2]; 5 minutes after midazolam 3.5 mg IV): 2 (8.3%) subjects (%); Highest proportion of subjects with RSS scores >2 postdose (healthy adult subjects [2]; midazolam 3.5 mg IV): ~54%; Number of treatment-related AEs (healthy adult subjects [3]; midazolam 3.5 mg IV): 2 events; Mean changes from baseline in systolic and diastolic blood pressures (healthy adult subjects [4]): minimal and similar; Mean change from baseline in pulse oximetry (healthy adult subjects [4]; midazolam 3.5 mg IV at 10 minutes postdose, MELT-100 6/50 mg at 30 minutes postdose, minimal at 2 hours): small mean decrease from baseline; PR duration (healthy adult subjects [5]): abnormal
